Experimental data: patent US10233180B2, “Substituted nitrogen-containing heterocyclic derivatives, pharmaceutical compositions comprising the same and applications of antitumor thereof” (ZHEJIANG UNIVERSITY, priority 2014, dated 2019)

Key:
[1] = test system: human colon cancer cell strain HCT-116; test: MTT assay, inhibition of tumor cell growth in vitro, 72 h; type: cell-based; details: Homo sapiens, HCT-116, MTT, read-out: Antitumor proliferative activities of tumor cell (IC50, μM) HCT-116 (converted)
How it was run: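 Cells in RPMI 1640 with FBS, 4000 cells/well, exposed 72 h at 37 °C, 5% CO2 to final 50, 10, 2, 0.4 and 0.08 μM; 1% DMSO blank. MTT OD gives % inhibition versus control; IC50 derived by Bliss method.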

[2] = test system: Human ovarian cancer cell strain OVCAR-8; test: as above; type: cell-based; details: Homo sapiens, OVCAR-8, MTT, read-out: Antitumor proliferative activities of tumor cell (IC50, μM) OVCAR-8
How it was run: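 OVCAR8 cells in RPMI 1640 plus FBS were seeded at 4000 cells/well and exposed for 72 h at 37 °C to compound at 50, 10, 2, 0.4 and 0.08 μM final, with 1% DMSO as blank. Inhibition was calculated from OD relative to control, and IC50 was derived by the Bliss method.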

Akt1 = molecular target: T1, Akt1 (Homo sapiens, UniProt P31749); test: AKT1/PKBα KinEASE FP Fluorescein Green Assay (fluorescence polarization kinase kit); type: biochemical; details: 1 h reaction, read-out: Inhibitory activities against Akt1 (IC50)
T1 construct: purchased 32-021
How it was run: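 FP competition kinase assay: compounds (50 μM stock) with STK Substrate 3 and ATP, 1 h reaction at room temperature; stopped with stop/antibody mix, 4 h at room temperature, then polarization read. Inhibition derived from polarization values; IC50 calculated; triplicate wells.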

T1 sequence (P31749 whole entry): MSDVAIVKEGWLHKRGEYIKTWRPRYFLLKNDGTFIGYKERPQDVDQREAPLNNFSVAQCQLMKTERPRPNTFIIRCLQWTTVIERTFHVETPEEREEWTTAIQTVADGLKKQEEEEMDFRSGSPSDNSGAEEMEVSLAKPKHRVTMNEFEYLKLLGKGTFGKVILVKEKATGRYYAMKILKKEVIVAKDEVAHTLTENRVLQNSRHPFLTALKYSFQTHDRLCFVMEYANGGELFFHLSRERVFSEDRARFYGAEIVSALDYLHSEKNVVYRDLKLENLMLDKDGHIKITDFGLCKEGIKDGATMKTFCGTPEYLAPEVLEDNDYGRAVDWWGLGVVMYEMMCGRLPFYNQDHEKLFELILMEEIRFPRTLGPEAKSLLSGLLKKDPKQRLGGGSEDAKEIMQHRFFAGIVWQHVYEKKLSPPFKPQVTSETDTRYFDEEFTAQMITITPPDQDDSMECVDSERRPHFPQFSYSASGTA

SMILES | IC50 [1] [µM] | IC50 [2] [µM] | IC50 (Akt1) [nM]
Cc1[nH]c(C(=O)N[C@H]2CNCC[C@@H]2c2cccc(C#N)c2)cc1-c1c(Br)cnn1C (racemic) [Compound 10, 5-methyl-4-(1-methyl-4-bromo-1H-pyrazol-5-yl)-N-(3,4-trans-4-(3-cyanophenyl)piperidin-3-yl)-1H-pyrrole-2-formamide] | 3.31 | 6.57 | 26
Cn1nccc1-c1coc(C(=O)N[C@H]2CNCC[C@@H]2c2ccccc2)n1 (racemic) [Compound 19, 4-(1-methyl-1H-pyrazol-5-yl)-N-(3,4-trans-4-phenylpiperidin-3-yl)oxazole-2-formamide] | 4.56 | 9.83 | 82
Cn1ncc(CO)c1-c1ccc(C(=O)N[C@@H]2CNCC[C@H]2c2cccc(F)c2)s1 [Compound 141, N-((3S, 4S)-4-(3-fluorophenyl)piperidin-3-yl)-5-(4-(hydroxylmethyl)-1-methyl-1H-pyrazol-5-yl)thiophene-2-formamide] | 6.56 | 1.05 | 12
CN(C)CCC1C[C@@H](c2ccc(Cl)c(Cl)c2)[C@H](NC(=O)c2cc(-c3c(Cl)cnn3C)c(Cl)o2)CN1 (stereo partly drawn) [Compound 107, 5-chloro-4-(4-chloro-1-methyl-1H-pyrazol-5-yl)-N-((3S,4S)-4-(3,4-dichlorophenyl)-6-(2-(dimethylamino)ethyl)piperidin-3-yl)furan-2-formamide] | 1.08 | 1.01 | 14
Cn1ncc(Br)c1-c1ccc(C(=O)N[C@@H]2CNCC[C@H]2c2cc(F)c(F)c(F)c2)cc1 [Compound 81, 4-(4-bromo-1-methyl-1H-pyrazol-5-yl)-N-((3S,4S)-4-(3,4,5-trifluorophenyl)piperidin-3-yl)benzamide] | 1.1 | 3.57 | 18
Cc1nc(C(=O)N[C@H]2CNCC[C@@H]2c2ccncc2)ccc1-c1c(Br)cnn1C (racemic) [Compound 58, 6-methyl-5-(4-bromo-1-methyl-1H-pyrazol-5-yl)-N-(3,4-trans-4-(pyridinyl-4-yl)piperidin-3-yl)pyridinyl-2-formamide] | 15.8 | 3.68 | 52
Cn1ncc(Cl)c1-c1cnc(C(=O)N[C@@H]2CNCC[C@H]2c2ccc(F)c(F)c2)c(F)c1 [Compound 97, 5-(4-chloro-1-methyl-1H-pyrazol-5-yl)-N-((3S,4S)-4-(3,4-difluorophenyl)piperidin-3-yl)-3-fluoropicolinamide] | 4.14 | 4.89 | 8
Cn1ncc(Cl)c1-c1ccc(C(=O)N[C@@H]2CNC(CCNS(C)(=O)=O)C[C@H]2c2cccc(F)c2)cc1Cl (stereo partly drawn) [Compound 103, 3-chloro-4-(4-chloro-1-methyl-1H-pyrazol-5-yl)-N-((3S,4S)-4-(3-fluorophenyl)-6-(2-(methylsulfonamido)ethyl)piperidin-3-yl)benzamide] | 2.81 | 1.11 | 5
Cn1nccc1-c1ccc(C(=O)N[C@@H]2CNCC[C@H]2c2cccc(F)c2)s1 [Compound 146, N-((3S, 4S)-4-(3-fluorophenyl)piperidin-3-yl)-5-(1-methyl-1H-pyrazol-5-yl)thiophene-2-formamide] | 0.44 | 4.19 | 7
Cn1ncc(Cl)c1-c1cc(C(=O)N[C@@H]2CNC(CCN3CCCC3)C[C@H]2c2ccc(Cl)c(Cl)c2)oc1Cl (stereo partly drawn) [Compound 110, 5-chloro-4-(4-chloro-1-methyl-1H-pyrazol-5-yl)-N-((3S,4S)-4-(3,4-dichlorophenyl)-6-(2-(pyrrolidin-1-yl)ethyl)piperidin-3-yl)furan-2-formamide] | 0.89 | 1.21 | 11
Cn1ncc(Cl)c1-c1cc(C(=O)N[C@@H]2CNC(CCOC(=O)C(F)(F)F)C[C@H]2c2ccc(F)c(F)c2)oc1Cl (stereo partly drawn) [Compound 132, 2-((4S,5S)-5-(5-chloro-4-(4-chloro-1-methyl-1H-pyrazol-5-yl)furan-2-formamido)-4-(3,4-difluorophenyl)piperidin-2-yl)ethyl 2,2,2-trifluoroacetate] | 1.21 | 1.33 | 2

More lines, in order of falling IC50 [2], values ahead:

IC50 [1] [µM] | IC50 [2] [µM] | IC50 (Akt1) [nM] | SMILES
2.5 | 12.9 | 82 | Cc1cccc([C@H]2CCNC[C@@H]2NC(=O)c2cc(C)c(-c3c(Br)cnn3C)cc2C)c1 (racemic) [Compound 57, 2,5-dimethyl-4-(4-bromo-1-methyl-1H-pyrazol-5-yl)-N-(3,4-trans-4-(3-methylphenyl)piperidin-3-yl)phenyl formamide]
8.11 | 9.71 | 92 | Cn1ncc(Br)c1-c1csc(C(=O)N[C@@H]2CNCC[C@H]2c2ccc(F)c(F)c2)c1 [Compound 42, 4-(4-bromo-1-methyl-1H-pyrazol-5-yl)-N-((3S,4S)-4-(3,4-difluorophenyl)piperidin-3-yl)thiophene-2-formamide]
31.1 | 6.67 | 626 | Cc1cnn(C)c1-c1cnc(C(=O)N[C@@H]2CNCC[C@H]2c2ccc(F)c(F)c2)cc1F [Compound 62, 4-fluoro-5-(1,4-dimethyl-1H-pyrazol-5-yl)-N-((3S,4S)-4-(3,4-difluorophenyl)piperidin-3-yl)pyridinyl-2-formamide]
11.5 | 4.61 | 120 | Cn1ncc(Cl)c1-c1csc(C(=O)N[C@H]2CNCC[C@@H]2c2ccc(Cl)cc2)c1 (racemic) [Compound 35, 4-(4-chloro-1-methyl-1H-pyrazol-5-yl)-N-(3,4-trans-4-(4-chlorphenyl)piperidin-3-yl)thiophene-2-formamide]
4.08 | 3.77 | 19 | Cn1ncc(Cl)c1-c1ccc(C(=O)N[C@@H]2CNCC[C@H]2c2cccc(F)c2)cc1N [Compound 79, 3-amido-4-(4-chloro-1-methyl-1H-pyrazol-5-yl)-N-((3S,4S)-4-(3-fluorophenyl)piperidin-3-yl)benzamide]
3.28 | 3.38 | 105 | Cn1ncc(Cl)c1-c1csc(C(=O)N[C@H]2CNCC[C@@H]2c2ccc(F)c(F)c2)c1 (racemic) [Compound 36, 4-(4-chloro-1-methyl-1H-pyrazol-5-yl)-N-(3,4-trans-4-(3,4-difluorophenyl)piperidin-3-yl)thiophene-2-formamide]
11.1 | 2.61 | 116 | Cc1cnn(C)c1-c1cnc(C(=O)N[C@H]2CNC[C@@H]2c2ccc(C(F)(F)F)cc2)cc1F (racemic) [Compound 71, 4-fluoro-5-(1,4-dimethyl-1H-pyrazol-5-yl)-N-(3,4-trans-4-(4-trifluoromethylphenyl)pyrrolidin-3-yl)pyridinyl-2-formamide]
18.3 | 1.88 | 672 | Cn1ncc(Cl)c1-c1cc(C(=O)N[C@@H]2CNCC[C@H]2c2ccc(C(F)(F)F)cc2)oc1Cl [Compound 44, 5-chloro-4-(4-chloro-1-methyl-1H-pyrazol-5-yl)-N-((3S,4S)-4-(4-trifluoromethylphenyl)piperidin-3-yl)furan-2-formamide]
0.69 | 1.83 | 14 | Cn1ncc(Cl)c1-c1ccc(C(=O)N[C@@H]2CNCC[C@H]2c2ccc(F)c(F)c2)c(-c2csc(Cl)c2)c1 [Compound 90, 4-(4-chloro-1-methyl-1H-pyrazol-5-yl)-2-(5-chlorothiophene-3-yl)-N-((3S, 4S)-4-(3,4-difluorophenyl)piperidin-3-yl)benzamide]
2.43 | 1.71 | 3 | CNC(=O)CC1C[C@@H](c2ccc(F)c(F)c2)[C@H](NC(=O)c2cc(-c3c(Cl)cnn3C)c(Cl)s2)CN1 (stereo partly drawn) [Compound 104, 5-chloro-4-(4-chloro-1-methyl-1H-pyrazol-5-yl)-N-((3S,4S)-4-(3,4-difluorophenyl)-6-(2-(methylamido)-2-oxoethyl)piperidin-3-yl)thiophene-2-formamide]
2.51 | 1.44 | 0.7 | Cn1ncc(Cl)c1-c1sc(C(=O)N[C@@H]2CNCC[C@H]2c2cccc(F)c2)cc1Cl [Compound 139, 4-chloro-5-(4-chloro-1-methyl-1H-pyrazol-5-yl)-N-((3S, 4S)-4-(3-fluorophenyl)piperidin-3-yl)thiophene-2-formamide]
0.42 | 1.12 | 9 | Cn1ncc(Cl)c1-c1ccc(C(=O)N[C@@H]2CNC(CCO)C[C@H]2c2ccc(F)c(F)c2)cc1 (stereo partly drawn) [Compound 100]
0.36 | 0.74 | 5 | Cn1ncc(Cl)c1-c1cc(C(=O)N[C@@H]2CNC(CC(=O)NCC(O)CO)C[C@H]2c2ccc(Cl)c(Cl)c2)oc1Cl (stereo partly drawn) [Compound 121, 5-chloro-4-(4-chloro-1-methyl-1H-pyrazol-5-yl)-N-((3S,4S)-4-(3,4-dichlorophenyl)-6-(2-((2,3-dihydroxypropyl)amido)-2-oxoethyl)piperidin-3-yl)furan-2-formamide]
0.78 | 0.51 | 0.4 | Cn1ncc(Cl)c1-c1cc(C(=O)N[C@@H]2CNC(CCO)C[C@H]2c2ccc(F)c(F)c2)oc1Cl (stereo partly drawn) [Compound 129, 5-chloro-4-(4-chloro-1-methyl-1H-pyrazol-5-yl)-N-((3S,4S)-4-(3,4-difluorophenyl)-6-(2-hydroxyethyl)piperidin-3-yl)furan-2-formamide]
